From paper PMC2721901 (Molecular cell, 2009)

What was measured:
Assay type in all cases: biochemical
ISW2 [1] = molecular target: T1, ISW2 (Saccharomyces cerevisiae, UniProt Q08773); assay: competitive inhibitor assay against ATP; settings: competitive with ATP at active site
ISW1a = ISW1a (Saccharomyces cerevisiae, UniProt P38144); assay: nucleosome mobilization, native gel shift; settings: 70N0 nucleosomes, 90 or 800 µM ATP, 5 mM MgCl2, pH 7.6, 20°C
ISW2 [2] = molecular target: T1, ISW2; assay: nucleosome mobilization, native gel shift; settings: 70N0 nucleosomes, 90 or 800 µM ATP, 5 mM MgCl2, pH 7.6, 20°C

T1 sequence (Q08773 whole entry): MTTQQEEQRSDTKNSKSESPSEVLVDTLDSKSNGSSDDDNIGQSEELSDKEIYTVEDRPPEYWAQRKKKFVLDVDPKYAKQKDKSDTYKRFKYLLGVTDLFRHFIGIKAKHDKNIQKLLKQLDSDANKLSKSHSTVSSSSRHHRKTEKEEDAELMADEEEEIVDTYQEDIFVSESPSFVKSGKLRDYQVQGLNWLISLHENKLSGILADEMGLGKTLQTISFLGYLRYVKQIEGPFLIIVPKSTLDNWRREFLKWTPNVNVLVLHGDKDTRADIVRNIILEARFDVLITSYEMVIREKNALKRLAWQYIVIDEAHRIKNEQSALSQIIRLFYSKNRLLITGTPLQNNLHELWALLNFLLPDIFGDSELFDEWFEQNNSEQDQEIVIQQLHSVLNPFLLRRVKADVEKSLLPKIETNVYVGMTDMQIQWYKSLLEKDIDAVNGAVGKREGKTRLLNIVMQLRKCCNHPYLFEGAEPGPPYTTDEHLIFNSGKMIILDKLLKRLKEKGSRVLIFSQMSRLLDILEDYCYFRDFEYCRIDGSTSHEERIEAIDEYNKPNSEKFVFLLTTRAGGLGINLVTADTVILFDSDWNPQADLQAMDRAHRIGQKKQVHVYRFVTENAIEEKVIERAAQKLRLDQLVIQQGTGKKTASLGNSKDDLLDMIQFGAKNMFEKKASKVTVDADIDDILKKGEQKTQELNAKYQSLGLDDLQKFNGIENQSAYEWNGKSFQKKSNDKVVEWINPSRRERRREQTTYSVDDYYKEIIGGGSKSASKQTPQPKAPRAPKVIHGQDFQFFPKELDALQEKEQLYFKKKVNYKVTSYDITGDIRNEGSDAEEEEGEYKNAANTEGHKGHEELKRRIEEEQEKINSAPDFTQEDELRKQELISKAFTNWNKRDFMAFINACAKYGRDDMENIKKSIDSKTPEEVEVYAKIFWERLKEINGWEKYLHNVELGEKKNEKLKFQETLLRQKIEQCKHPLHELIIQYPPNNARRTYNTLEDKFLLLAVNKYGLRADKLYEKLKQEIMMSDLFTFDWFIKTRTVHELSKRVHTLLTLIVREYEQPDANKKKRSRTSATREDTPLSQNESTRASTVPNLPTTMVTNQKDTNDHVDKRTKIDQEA
T1 sequence (P53125 whole entry partner): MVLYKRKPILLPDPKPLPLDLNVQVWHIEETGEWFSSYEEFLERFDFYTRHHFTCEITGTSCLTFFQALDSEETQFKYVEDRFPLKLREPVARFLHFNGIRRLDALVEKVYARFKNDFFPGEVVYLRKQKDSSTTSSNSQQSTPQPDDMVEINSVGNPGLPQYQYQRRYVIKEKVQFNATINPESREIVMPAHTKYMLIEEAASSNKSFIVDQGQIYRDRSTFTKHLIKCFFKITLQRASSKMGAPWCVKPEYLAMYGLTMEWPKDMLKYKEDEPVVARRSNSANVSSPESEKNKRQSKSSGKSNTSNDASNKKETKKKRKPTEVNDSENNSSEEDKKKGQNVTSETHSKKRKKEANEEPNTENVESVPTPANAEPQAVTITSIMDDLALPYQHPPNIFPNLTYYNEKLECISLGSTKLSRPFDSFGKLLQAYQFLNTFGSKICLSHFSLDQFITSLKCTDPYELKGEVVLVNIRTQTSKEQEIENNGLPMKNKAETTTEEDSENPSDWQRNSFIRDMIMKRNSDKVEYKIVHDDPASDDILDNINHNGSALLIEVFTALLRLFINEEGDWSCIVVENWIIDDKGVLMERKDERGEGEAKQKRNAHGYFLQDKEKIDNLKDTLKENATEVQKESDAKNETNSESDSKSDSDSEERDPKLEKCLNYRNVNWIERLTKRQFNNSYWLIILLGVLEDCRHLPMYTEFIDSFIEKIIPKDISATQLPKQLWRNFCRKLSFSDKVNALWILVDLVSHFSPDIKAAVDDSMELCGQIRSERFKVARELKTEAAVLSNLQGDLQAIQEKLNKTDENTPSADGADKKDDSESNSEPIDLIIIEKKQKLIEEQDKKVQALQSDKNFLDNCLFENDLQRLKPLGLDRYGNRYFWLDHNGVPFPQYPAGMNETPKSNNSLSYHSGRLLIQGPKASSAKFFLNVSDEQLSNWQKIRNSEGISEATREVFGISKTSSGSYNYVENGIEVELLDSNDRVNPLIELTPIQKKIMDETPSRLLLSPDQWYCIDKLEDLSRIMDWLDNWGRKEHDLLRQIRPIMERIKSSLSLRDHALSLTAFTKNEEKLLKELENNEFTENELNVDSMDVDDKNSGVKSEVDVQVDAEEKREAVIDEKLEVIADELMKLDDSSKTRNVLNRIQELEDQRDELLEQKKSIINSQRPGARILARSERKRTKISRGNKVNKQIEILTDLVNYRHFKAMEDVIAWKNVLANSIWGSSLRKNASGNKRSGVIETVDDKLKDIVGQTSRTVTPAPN
T1 sequence (Q04603 whole entry partner): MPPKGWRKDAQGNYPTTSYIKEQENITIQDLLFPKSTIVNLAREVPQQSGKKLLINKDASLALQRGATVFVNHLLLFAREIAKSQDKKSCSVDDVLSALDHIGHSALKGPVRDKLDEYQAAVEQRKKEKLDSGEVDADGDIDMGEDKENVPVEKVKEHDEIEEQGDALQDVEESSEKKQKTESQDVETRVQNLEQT
T1 sequence (P40366 whole entry partner): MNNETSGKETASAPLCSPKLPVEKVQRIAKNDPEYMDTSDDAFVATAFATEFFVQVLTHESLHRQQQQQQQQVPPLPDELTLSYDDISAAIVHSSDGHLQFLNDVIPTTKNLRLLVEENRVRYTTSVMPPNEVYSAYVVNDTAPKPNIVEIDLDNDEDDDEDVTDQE
Chain of ISW1a (P38144 whole entry): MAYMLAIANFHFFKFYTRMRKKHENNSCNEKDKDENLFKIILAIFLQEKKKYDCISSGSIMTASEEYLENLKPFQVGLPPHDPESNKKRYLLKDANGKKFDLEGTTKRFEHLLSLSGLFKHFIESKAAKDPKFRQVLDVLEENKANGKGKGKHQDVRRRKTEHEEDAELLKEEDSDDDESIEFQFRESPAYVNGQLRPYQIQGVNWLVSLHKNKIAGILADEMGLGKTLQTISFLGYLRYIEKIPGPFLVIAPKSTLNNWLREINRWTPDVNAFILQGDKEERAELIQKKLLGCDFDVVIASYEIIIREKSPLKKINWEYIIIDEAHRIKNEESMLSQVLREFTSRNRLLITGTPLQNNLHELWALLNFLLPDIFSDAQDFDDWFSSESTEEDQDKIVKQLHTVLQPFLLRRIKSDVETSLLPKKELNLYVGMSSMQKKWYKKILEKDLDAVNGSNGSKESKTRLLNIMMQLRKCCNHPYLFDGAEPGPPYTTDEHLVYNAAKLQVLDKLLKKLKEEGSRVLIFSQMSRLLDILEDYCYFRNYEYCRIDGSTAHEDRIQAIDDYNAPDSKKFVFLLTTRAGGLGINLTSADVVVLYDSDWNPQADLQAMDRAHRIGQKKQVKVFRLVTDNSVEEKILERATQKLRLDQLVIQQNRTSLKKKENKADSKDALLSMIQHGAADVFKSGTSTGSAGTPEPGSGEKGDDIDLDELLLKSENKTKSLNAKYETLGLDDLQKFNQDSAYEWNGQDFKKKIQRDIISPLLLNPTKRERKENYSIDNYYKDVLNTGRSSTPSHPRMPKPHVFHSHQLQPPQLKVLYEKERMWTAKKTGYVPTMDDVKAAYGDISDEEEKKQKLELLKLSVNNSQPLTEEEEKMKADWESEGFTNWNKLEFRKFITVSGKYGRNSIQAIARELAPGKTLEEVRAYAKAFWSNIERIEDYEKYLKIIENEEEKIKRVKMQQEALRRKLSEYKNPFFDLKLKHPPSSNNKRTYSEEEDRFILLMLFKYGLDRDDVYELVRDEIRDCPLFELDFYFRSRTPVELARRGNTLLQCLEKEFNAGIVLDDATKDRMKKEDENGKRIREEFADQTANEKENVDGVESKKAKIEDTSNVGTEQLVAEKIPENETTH
Chain of ISW1a (P43596 whole entry partner): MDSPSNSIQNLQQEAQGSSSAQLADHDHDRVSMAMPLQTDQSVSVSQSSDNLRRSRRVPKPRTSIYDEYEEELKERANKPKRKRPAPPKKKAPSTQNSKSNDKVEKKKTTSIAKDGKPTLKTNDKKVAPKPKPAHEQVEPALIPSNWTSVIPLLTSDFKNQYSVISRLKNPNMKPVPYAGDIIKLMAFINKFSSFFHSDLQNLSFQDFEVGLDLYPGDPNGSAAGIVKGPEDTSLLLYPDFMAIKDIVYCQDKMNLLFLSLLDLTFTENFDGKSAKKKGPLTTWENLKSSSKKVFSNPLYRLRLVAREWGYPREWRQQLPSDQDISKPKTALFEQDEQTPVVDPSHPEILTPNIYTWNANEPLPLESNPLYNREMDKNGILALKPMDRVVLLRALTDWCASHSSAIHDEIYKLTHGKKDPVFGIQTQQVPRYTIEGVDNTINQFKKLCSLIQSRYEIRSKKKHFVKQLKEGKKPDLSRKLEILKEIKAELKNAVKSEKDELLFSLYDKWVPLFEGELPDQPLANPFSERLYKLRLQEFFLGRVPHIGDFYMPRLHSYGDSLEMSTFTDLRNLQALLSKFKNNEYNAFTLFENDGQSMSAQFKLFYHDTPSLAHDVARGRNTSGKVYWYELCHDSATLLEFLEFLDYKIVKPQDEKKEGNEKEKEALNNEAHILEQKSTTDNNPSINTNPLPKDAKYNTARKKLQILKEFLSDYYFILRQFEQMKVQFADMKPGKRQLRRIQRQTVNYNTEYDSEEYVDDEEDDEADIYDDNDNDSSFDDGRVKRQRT

`Nc1ncnc2c1ncn2[C@@H]1O[C@H](COP(=O)(O)OP(=O)(O)O)[C@@H](O)[C@H]1O` [ADP] was tested, and the “competitive inhibitor assay against ATP” value (ISW2 [1]) was “ADP and γ-S-ATP were shown to be bound at the active site of ISW2”.
For `Nc1ncnc2c1ncn2[C@@H]1O[C@H](COP(=O)(O)OP(=O)(O)OP(=O)(O)O)[C@@H](O)[C@H]1O` [ATP], the “nucleosome mobilization, native gel shift” value (ISW1a) was “ATP was found to be required for template commitment by ISW1a” and the “nucleosome mobilization, native gel shift” value (ISW2 [2]) was “Template commitment of ISW2 required initiation of the remodeling process rather than just ISW2 binding”.
